From patent US20150238447A1, “BETA-HYDROXY-BETA-METHYLBUTRYIC ACID-CONTAINING COMPOSITIONS AND USES THEREOF” (ABBOTT LABORATORIES, priority 2012, published 2015)

Tested on: mice fed a high fat diet
Assay: motor (exploratory) activity in activity monitoring chamber, Opto-Varimex 4
Format: in vivo
Settings: high fat diet plus Ca-HMB (170 or 340 mg/kg of drinking water) compared to high fat diet alone; 30 minutes observation
Experimental: The mice arrived at the facility at 21 days post birth and were divided into 6 groups after a seven day quarantine. There were 5 animals each. […] were placed on the following diets:
Group 1: High Fat Diet alone;
Group 2: High Fat Diet plus 500 mg of leucine/kg of drinking water;
Group 3: High Fat Diet plus 1000 mg of leucine/kg of drinking water;
Group 4: High Fat Diet plus 170 mg of Ca-HMB/kg of drinking water;
Group 5: High Fat Diet plus 340 mg of Ca-HMB/kg of drinking water; and
One week before the initiation of the study, the animals were acclimatized in the activity monitoring chamber, daily for half an hour. On the day of experiment, each set of animals were placed in the activity monitoring chamber (chamber 1 to 5) for half an hour. Motor activity of the mice in each group was monitored using the Actometry Apparatus: “Opto-Varimex 4” Auto-track system, Model No: 0271-004M. The motor activity of each mouse was monitored once in a week between 8:30 AM and 12:00 PM for 30 minutes. Six sets of “half an hour observations” were made for each of the 30 animals. The software captured motor activity parameters while the animals were in the activity monitoring chamber.

CC(C)(O)CC(=O)O [HMB, beta-hydroxy-beta-methylbutyric acid] was tested, and the exploratory activity was “enhanced exploratory activity”.
